According to patent publication US7902187B2, “6-substituted 2-(benzimidazolyl)purine and purinone derivatives for immunosuppression” (Wyeth LLC, priority 2006, dated 2011):

What follows are compounds tested against T1, Jak3 (Homo sapiens, UniProt P52333) (assay: Jak3 Kinase Assay (HTRF)). Settings: GST-Jak3 catalytic domain, 1 μM ATP, 60-min incubation; read-out: Jak3 Kinase, IC50 representation.
T1 construct: A fragment encoding the catalytic domain of Jak3 (508aa to 1124aa) was ligated with GST at 5′ end; made in house; host or cells: Sf9 insect cells (baculovirus, pFastBac 1)
T1 sequence (P52333 508-1124): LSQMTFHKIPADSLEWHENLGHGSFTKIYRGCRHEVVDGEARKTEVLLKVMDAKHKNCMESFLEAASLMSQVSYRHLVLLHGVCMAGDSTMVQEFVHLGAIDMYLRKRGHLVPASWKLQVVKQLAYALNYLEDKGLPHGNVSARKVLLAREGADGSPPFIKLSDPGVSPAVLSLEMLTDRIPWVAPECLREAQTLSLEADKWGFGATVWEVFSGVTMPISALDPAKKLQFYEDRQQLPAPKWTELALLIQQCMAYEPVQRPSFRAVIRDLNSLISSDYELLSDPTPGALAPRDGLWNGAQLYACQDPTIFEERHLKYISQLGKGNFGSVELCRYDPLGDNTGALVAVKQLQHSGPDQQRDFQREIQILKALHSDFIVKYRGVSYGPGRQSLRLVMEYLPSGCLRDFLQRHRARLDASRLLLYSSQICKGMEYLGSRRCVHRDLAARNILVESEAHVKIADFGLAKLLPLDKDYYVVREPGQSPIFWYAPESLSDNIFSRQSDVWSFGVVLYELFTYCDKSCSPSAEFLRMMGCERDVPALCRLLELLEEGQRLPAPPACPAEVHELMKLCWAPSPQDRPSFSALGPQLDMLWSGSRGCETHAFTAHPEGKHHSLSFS
Assay type: biochemical
Experimental: Human Jak3 cDNA was amplified by PCR. A fragment encoding the catalytic domain of Jak3 (508aa to 1124aa) was ligated with GST at 5′ end. This fused GST-Jak3 DNA fragment was cloned into the EcoRI site of the donor plasmid pFastBac 1 (Life Technologies #10359-016). The transformation, transposition, and transfection of insect cells (Sf9) were performed according to the manufacture's instructions. The cell lysate containing recombinant GST-Jak3 was used in the kinase assay. Anti-GST antibody (10 μg/ml, Sigma #G1417) was coated onto a 384-well plate at 4° C. overnight. Cell lysate containing GST-Jak3 (1:100 dilution) was added to the anti-GST coated plates, and GST-Jak3 was captured by immobilized anti-GST antibody. Testing compounds and substrate mix (50 mM HEPES, pH 7, 0.5 mM Na3VO4, 25 mM MgCl2, 1 mM DTT, 0.005% BSA, 1 μM ATP, and 4.5 μg/ml biotinyl poly-Glu,Ala,Tyr) were added to the plate to initiate the reaction. After a 60-min incubation, the reaction was stopped by 4 mM EDTA, and phosphorylation of biotinyl poly-Glu,Ala,Tyr was detected using 17 μg/ml Cy5-streptavidin (Amersham, #PA92005) and 2.7 μg/ml Europium-conjugated anti-phosphotyrosine antibody (PerkinElmer #AD0069) using homogeneous time-resolved fluorescence (HTRF) technology.

IC50, < 0.1 µM:
N#Cc1ccc2ncn(-c3nc(N4CC(F)(F)C4)c4[nH]c(=O)n([C@H]5CC[C@H](O)CC5)c4n3)c2c1, N#Cc1ccc2ncn(-c3nc(N4CCNCC4)c4[nH]c(=O)n(C5CCOCC5)c4n3)c2c1, N#Cc1ccc2ncn(-c3nc(N4CCC4)c4[nH]c(=O)n(C5CCOCC5)c4n3)c2c1, O=c1[nH]c2c(-c3cn[nH]c3)nc(-n3cnc4ccc(F)cc43)nc2n1C1CCOCC1, Cc1nc2c(-c3ccncc3)nc(-n3cnc4ccc(Cl)cc43)nc2n1C1CCOCC1, O=c1[nH]c2c(N3CCC3)nc(-n3cnc4ccc(F)cc43)nc2n1[C@@H]1CCOc2c(F)cccc21, O=c1[nH]c2c(-c3ccncc3)nc(-n3cnc4ccc(Cl)cc43)nc2n1C1CCOCC1, N#Cc1ccc2ncn(-c3nc(NCC4CC4)c4[nH]c(=O)n(C5CCOCC5)c4n3)c2c1, CN1CCCN(c2nc(-n3cnc4ccc(F)cc43)nc3c2[nH]c(=O)n3C2CCOCC2)CC1, N#Cc1ccc2ncn(-c3nc(NC4CCC4)c4[nH]c(=O)n(C5CCOCC5)c4n3)c2c1, CC(C)(C)OC(=O)N1CC(CNc2nc(-n3cnc4ccc(F)cc43)nc3c2[nH]c(=O)n3C2CCOCC2)C1, O=c1[nH]c2c(N3CCCCC3)nc(-n3cnc4ccc(F)cc43)nc2n1C1CCOCC1, CN(C)C(=O)CNc1nc(-n2cnc3ccc(F)cc32)nc2c1[nH]c(=O)n2C1CCOCC1, Cn1c(=O)n([C@H]2CC[C@H](O)CC2)c2nc(-n3cnc4ccc(F)cc43)nc(N3CCC(F)CC3)c21, Cn1c(=O)n([C@H]2CC[C@H](O)CC2)c2nc(-n3cnc4ccc(C#N)cc43)nc(-c3ccncc3)c21, O=c1[nH]c2c(N3CCC(F)CC3)nc(-n3cnc4ccc(F)cc43)nc2n1C1CCOCC1, O=c1[nH]c2c(N3CCC(F)(F)CC3)nc(-n3cnc4ccc(F)cc43)nc2n1C1CCOCC1, Cn1c(=O)n([C@H]2CC[C@H](O)CC2)c2nc(-n3cnc4ccc(Cl)cc43)nc(N3CCC(F)(F)CC3)c21, COCCCCn1c(=O)[nH]c2c(N3CC(F)(F)C3)nc(-n3cnc4ccc(C#N)cc43)nc21, COCCCNc1nc(-n2cnc3ccc(Cl)cc32)nc2c1[nH]c(=O)n2C1CCOCC1, O=c1[nH]c2c(CO)nc(-n3cnc4ccc(F)cc43)nc2n1C1CCOc2ccccc21 (stereo not shown), N#CCCCc1nc(-n2cnc3ccc(F)cc32)nc2c1[nH]c(=O)n2[C@@H]1CCOc2c(F)cccc21, Cc1ncccc1Cn1c(=O)[nH]c2c(N3CC(F)(F)C3)nc(-n3cnc4ccc(C#N)cc43)nc21, CC(C)(C)OC(=O)N1CC(Nc2nc(-n3cnc4ccc(F)cc43)nc3c2[nH]c(=O)n3C2CCOCC2)C1, O=c1[nH]c2c(-c3ccncc3)nc(-n3cnc4ccc(F)cc43)nc2n1C1CCOCC1, Cn1c(=O)n(C2CCOCC2)c2nc(-n3cnc4ccc(Cl)cc43)nc(N3CC(F)(F)C3)c21, O=c1[nH]c2c(N3CCCC(F)(F)C3)nc(-n3cnc4ccc(F)cc43)nc2n1C1CCOCC1, N#Cc1ccc2ncn(-c3nc(N4CC(F)(F)C4)c4[nH]c(=O)n(Cc5cccnc5)c4n3)c2c1, O=c1[nH]c2c(N3CC(F)(F)C(F)(F)C3)nc(-n3cnc4ccc(F)cc43)nc2n1C1CCOCC1, O=C(O)c1nc(-n2cnc3ccc(F)cc32)nc2c1[nH]c(=O)n2C1CCOc2ccccc21 (stereo not shown), NC(=O)c1nc(-n2cnc3ccc(F)cc32)nc2c1[nH]c(=O)n2C1CCOc2ccccc21 (stereo not shown)
